From US6838477B2, “Lactacystin analogs” (President and Fellows of Harvard College, priority 1995, dated 2005)

How the values were obtained:
[1] = test system: IκB-α; test: TNF-α dependent degradation of IκB-α in Hela cells (immunoblot); format: cell-based, human; settings: 5 μM, 1 h pretreatment, 1,000 U/ml TNF-α
Method: Hela cells were plated onto 6-well plates in DME plus 10% fetal calf serum (3 mls/well). Cells were then pretreated with 0.125% DMSO 40 μM […] (carbobenzoxyl-leucinyl-leucinyl-leucinal-H)(40 μM, lanes 103), or 5 μM β-lactone for one hour, followed by treatment with 1,000 U/ml TNF-α or phosphate buffered saline (PBS). Cells were harvested after 0 min, 20 min, or 40 min of further incubation at 37° C. Cells were then lysed in buffer containing NP-40 and protease inhibitors, and the proteins separated on a 10% SDS-polyacrylamide gel. The proteins were then transferred to nitrocellulose and probed with antibodies against the C-terminal 20 amino acids of human IκB-α.

[2] = molecular target: T1, Calpain I (Homo sapiens, UniProt P07384); test: Selectivity of protease inhibition: calpain I; format: biochemical; settings: concentration not given
T1 sequence (P07384 1-714): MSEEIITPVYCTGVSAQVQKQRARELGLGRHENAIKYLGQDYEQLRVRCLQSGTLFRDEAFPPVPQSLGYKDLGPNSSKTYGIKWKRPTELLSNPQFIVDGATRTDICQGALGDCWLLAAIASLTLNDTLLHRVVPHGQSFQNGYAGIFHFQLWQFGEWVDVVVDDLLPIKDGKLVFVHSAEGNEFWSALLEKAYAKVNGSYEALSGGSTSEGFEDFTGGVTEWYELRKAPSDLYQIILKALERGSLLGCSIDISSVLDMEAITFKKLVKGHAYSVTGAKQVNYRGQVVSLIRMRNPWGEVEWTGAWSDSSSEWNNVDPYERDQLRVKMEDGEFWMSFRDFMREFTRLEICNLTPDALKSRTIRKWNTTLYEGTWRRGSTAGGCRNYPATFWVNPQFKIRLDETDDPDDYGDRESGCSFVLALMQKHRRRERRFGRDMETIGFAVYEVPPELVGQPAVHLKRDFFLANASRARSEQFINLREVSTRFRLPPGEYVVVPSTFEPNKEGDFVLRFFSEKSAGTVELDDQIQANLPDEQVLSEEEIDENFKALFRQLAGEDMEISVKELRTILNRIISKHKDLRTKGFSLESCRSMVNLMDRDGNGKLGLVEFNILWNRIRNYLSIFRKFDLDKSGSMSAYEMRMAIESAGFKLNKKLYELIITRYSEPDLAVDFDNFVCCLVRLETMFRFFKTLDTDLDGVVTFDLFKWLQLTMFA
T1 sequence (P04632 1-268 partner): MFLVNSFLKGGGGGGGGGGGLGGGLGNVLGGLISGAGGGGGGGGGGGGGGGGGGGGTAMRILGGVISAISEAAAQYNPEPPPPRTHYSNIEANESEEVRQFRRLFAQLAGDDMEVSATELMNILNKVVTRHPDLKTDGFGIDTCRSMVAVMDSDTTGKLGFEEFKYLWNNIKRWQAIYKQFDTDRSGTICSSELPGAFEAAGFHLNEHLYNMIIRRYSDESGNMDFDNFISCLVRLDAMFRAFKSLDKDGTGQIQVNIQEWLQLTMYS

[3] = molecular target: α-Chymotrypsin (Bos taurus, UniProt P00766, DEL14-15/DEL147-148); test: Selectivity of protease inhibition: α-chymotrypsin; format: biochemical; settings: concentration not given
[4] = molecular target: T2, Calpain II (Homo sapiens, UniProt P17655); test: Selectivity of protease inhibition: calpain II; format: biochemical; settings: concentration not given
T2 sequence (P17655 1-700): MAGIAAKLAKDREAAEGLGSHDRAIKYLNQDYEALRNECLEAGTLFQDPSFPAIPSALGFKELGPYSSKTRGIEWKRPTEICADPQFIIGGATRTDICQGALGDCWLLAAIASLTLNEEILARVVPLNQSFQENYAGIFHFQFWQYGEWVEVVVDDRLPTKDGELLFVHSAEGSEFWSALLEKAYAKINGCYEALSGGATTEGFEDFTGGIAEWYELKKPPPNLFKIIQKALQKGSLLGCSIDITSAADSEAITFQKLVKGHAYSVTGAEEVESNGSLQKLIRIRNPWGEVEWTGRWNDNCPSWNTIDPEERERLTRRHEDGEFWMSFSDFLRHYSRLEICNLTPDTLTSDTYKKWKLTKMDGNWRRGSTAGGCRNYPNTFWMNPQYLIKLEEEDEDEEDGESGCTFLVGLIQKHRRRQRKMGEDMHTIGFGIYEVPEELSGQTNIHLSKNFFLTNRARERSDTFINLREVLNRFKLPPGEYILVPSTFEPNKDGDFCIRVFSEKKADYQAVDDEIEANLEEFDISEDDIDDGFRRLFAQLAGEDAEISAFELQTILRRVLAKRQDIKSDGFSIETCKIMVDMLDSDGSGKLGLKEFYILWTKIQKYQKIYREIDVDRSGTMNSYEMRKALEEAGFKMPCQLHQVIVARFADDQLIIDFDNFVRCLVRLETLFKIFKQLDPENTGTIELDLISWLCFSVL
T2 sequence (P04632 1-268 partner): T1 sequence (P04632 1-268 partner)

[5] = molecular target: T3, Trypsin (Bos taurus, UniProt P00760); test: Selectivity of protease inhibition: trypsin; format: biochemical; settings: concentration not given
T3 construct: gene PRSS1
T3 sequence (P00760 24-246): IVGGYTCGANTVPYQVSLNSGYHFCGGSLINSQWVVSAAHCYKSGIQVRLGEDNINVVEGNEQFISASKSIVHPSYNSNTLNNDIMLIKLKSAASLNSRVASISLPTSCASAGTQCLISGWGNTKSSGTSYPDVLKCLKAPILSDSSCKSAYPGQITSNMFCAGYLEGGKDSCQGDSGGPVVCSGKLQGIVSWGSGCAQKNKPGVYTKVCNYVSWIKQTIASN

[6] = test system: p105 to p50 processing; test: Proteasome dependent p105 to p50 processing in transfected COS cells (pulse-chase); format: cell-based, African green monkey; settings: 1 h pretreatment, 2 hour chase
Method: COS cells were plated onto 100 mm dishes, then, with DEAE-Destran, either mock transfected, or transfected with 3 μg of pcDNA plasmid containing the human p105 cDNA. Forty-eight hrs after transfection, cells were pretreated for 1 hour with 0.5% DMSO, 50 μM calpain inhibitor II, 50 μM MG132, or 10 μM β-lactone. Cells were then pulse labelled with 250 uCi/plate of ^35S-methionine/cysteine for 15 minutes, and either harvested immediately or followed by a 2 hour chase with excess unlabelled methionine and cysteine. Cells were then lysed with SDS/Tris, and proteins were immunoprecipitated with anti-p50 antibodies (recognize the N-terminal half of the p105 protein). These proteins were then separated on a 10% SDS-polyacrylamide gel, which was then fixed, dried, and exposed to autoradiographic film.

[7] = molecular target: T4, Papain (Carica papaya, UniProt P00784); test: Selectivity of protease inhibition: papain; format: biochemical; settings: concentration not given
T4 sequence (P00784 134-345): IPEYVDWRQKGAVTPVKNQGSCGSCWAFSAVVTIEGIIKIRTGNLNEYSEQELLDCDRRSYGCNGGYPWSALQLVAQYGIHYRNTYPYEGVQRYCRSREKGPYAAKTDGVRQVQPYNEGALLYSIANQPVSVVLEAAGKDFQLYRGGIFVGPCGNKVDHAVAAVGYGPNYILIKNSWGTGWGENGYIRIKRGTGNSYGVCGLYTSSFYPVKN

## CC(C)[C@H](O)[C@@]12NC(=O)[C@H](C)[C@@H]1OC2=O [β-Lactone, clasto-lactacystin β-lactone]
[1]
  degradation of IκB after TNF induction: blocks degradation
  phosphorylated form of IκB: stabilizes the phosphorylated form
[2]
  inhibition of calpain I activity: do not inhibit
[3]
  inhibition of α-chymotrypsin activity: do not inhibit
[4]
  inhibition of calpain II activity: do not inhibit
[5]
  inhibition of trypsin activity: do not inhibit
[6]; 10 μM
  processing of p105 to p50 (level of p50): only a slight effect
[6]; 50 μM
  processing of p105 to p50 (appearance of p50): complete inhibition
[7]
  inhibition of papain activity: do not inhibit
